Measurements from publication PMC7190660, “Standardised comparison of limonene-derived monoterpenes identifies structural determinants of anti-inflammatory activity” (Scientific Reports, 2020).
Where “and” joins values, the source holds several entries; their conditions need not be identical. Equal values may be shown once. Entries after “also recorded” stand apart in the source; their conditions may differ.

How the values were obtained:
NOS2 [1] = experiment: LPS-induced NOS2 mRNA (qRT-PCR) and protein (western blot) in Raw 264.7; type: cell-based, mouse; settings: 1 h pre-treatment, Bay 11-7082 5 μM; for LPS-induced NOS2 mRNA levels: LPS 1 µg/mL 6 h, test compounds 666 µM; for LPS-induced NOS2 protein levels: LPS 1 µg/mL 18 h
Method: Macrophage cultures were treated with 1 µg/mL LPS, for 6 h (a) or 18 h (b), following pre-treatment for 1 h with 666 µM of each test compound (a) or with the concentrations indicated in (b). […] Control cells (Ctrl) were treated with the vehicle (0.1% DMSO) in the absence of LPS. Each column represents the mean ± SEM of four independent experiments. The blots shown are representative of, at least, three independent experiments and are cropped for clarity and conciseness.
Total RNA extraction and qRT-PCR were performed as described before[52]. Briefly, total RNA was extracted using the NZYol (NZYTECH, Lisbon, Portugal) and quantified in a NanoDrop ND-1000 spectrophotometer at 260 nm. RNA purity was assessed by analysis of 260/230 and 260/280 absorption ratios. The cDNA was reverse-transcribed using NZY First Strand cDNA Synthesis Kit (NZYTECH), beginning with 2 µg of total RNA. qRT-PCR was performed, in duplicate for each sample, using NZYSpeedy qPCR Green Master Mix (2×) (NZYTECH) on CFX96 Real-Time PCR Detection System (Bio-Rad, Hercules, CA, USA).
Gene expression changes were analysed using the built-in CFX Manager software which enables the analysis of the results by the Pfaffl method, a variation of the ΔΔCT method corrected for gene-specific efficiencies[53]. The results were normalized using Hprt1 as housekeeping gene.
Total cell extracts were prepared and western blot was performed as described before[54]. Briefly, total (25 µg for Raw 264.7 cell line and 20 µg for human chondrocytes) proteins were separated by SDS-PAGE under reducing conditions and electrotransferred onto PVDF membranes. […] Immune complexes were detected with Enhanced ChemiFluorescence reagent (GE Healthcare) in the imaging system Thyphoon FLA 9000 (GE Healthcare). The membranes were reprobed with a mouse monoclonal anti-β-Tubulin I antibody (Sigma-Aldrich Co.), diluted at 1:20000, as a loading control, for 1 h at room temperature. Image analysis was performed with TotalLab TL120 software (Nonlinear Dynamics Ltd).

NOS2 [2] = experiment: NO production and NOS2 protein levels pre-induced by LPS (compound added after LPS removal) in Raw 264.7; type: cell-based, mouse; settings: LPS 1 μg/mL 8 h, LPS removed, then 666 µM compound for 18 h
Method: (§1) Each column represents the mean ± SEM of, at least, three independent experiments. The blots shown are representative of, at least, three independent experiments and are cropped for clarity and conciseness.
(§2) NO production was measured as the amount of nitrite accumulated in the culture supernatants using the Griess reaction which is based in the reaction of nitrite with sulfanilamide under acidic conditions, yielding a diazonium ion that couples to N-(1-napthtyl)ethylenediamine dihydrochloride to form a water-soluble red-violet azo dye that absorbs at 550 nm[51]. Briefly, equal volumes of culture supernatants and reagents [equal volumes of 1% (w/v) sulphanilamide in 5% (v/v) phosphoric acid and 0.1% (w/v) N-(1-napthtyl)ethylenediamine dihydrochloride] were mixed and incubated for 10 min, at room temperature, in the dark. The concentration of nitrite accumulated in the culture supernatants was calculated by interpolation of the absorbance of each sample, read in Biotek Synergy HT plate reader (Biotek), in a standard curve of sodium nitrite.
(§3) Total cell extracts were prepared and western blot was performed as described before. Briefly, total (25 µg for Raw 264.7 cell line and 20 µg for human chondrocytes) proteins were separated by SDS-PAGE under reducing conditions and electrotransferred onto PVDF membranes. […] Immune complexes were detected with Enhanced ChemiFluorescence reagent (GE Healthcare) in the imaging system Thyphoon FLA 9000 (GE Healthcare). The membranes were reprobed with a mouse monoclonal anti-β-Tubulin I antibody (Sigma-Aldrich Co.), diluted at 1:20000, as a loading control, for 1 h at room temperature. Image analysis was performed with TotalLab TL120 software (Nonlinear Dynamics Ltd).

[3] = system: LPS-induced NO production in Raw 264.7 macrophages; experiment: Primary screening: LPS-induced NO production (nitrite, Griess reaction) in Raw 264.7 macrophages; type: cell-based, mouse; settings: for IC50: Mus musculus, RAW264.7, Raw 264.7 cell line; for Decrease (inhibition) of LPS-induced NO production: at the highest concentration tested; for Decrease (inhibition) of LPS-induced NO production / % inhibition of LPS-induced NO production / Effect on LPS-induced NO production / anti-inflammatory activity (in words): Raw 264.7; for % inhibition of LPS-induced NO production: at the highest non-cytotoxic concentration tested, nitrite in supernatants; for Effect on LPS-induced NO production / anti-inflammatory activity (in words): non-cytotoxic concentrations
Method: (§4) Raw 264.7 cells were plated at a density of 3 × 10^5 cells/mL and left to stabilize for up to 24 h.
(§5) This vehicle was used as control. Lipopolysaccharides from Escherichia coli 026:B6 (LPS; Sigma-Aldrich Co.) were dissolved in phosphate buffered saline (PBS). Recombinant human interleukin-1β (IL-1β; Peprotech, Rocky Hill, NJ, USA) was dissolved in PBS containing 0.1% Bovine Serum Albumin.
as §2

Raw 264.7 cells = experiment: Cytotoxicity by resazurin reduction assay in Raw 264.7 cells; type: cell-based, mouse; settings: viability not decreased by more than 30% relative to LPS alone (ISO 10993-5), LPS 1 µg/mL 18 h
Method: Various concentrations of the test compounds, in the absence or presence of LPS, were first evaluated for cytotoxicity using the resazurin reduction assay[26]
as §4
Resazurin is a redox dye used as an indicator of cellular metabolic activity for various applications, namely cell viability, proliferation and toxicity. The assay is based on the intracellular reduction of the non-fluorescent resazurin to resorufin (a fluorescent and pink coloured compound) by mitochondrial or microsomal enzymes that use NADH or NADPH as electron sources. Since only metabolically active cells can reduce the dye, the increase in fluorescence or absorbance is directly proportional to the number of viable cells[26],[50].
(§6) To select non-cytotoxic concentrations of the test compounds, the resazurin solution was added to each well to a final concentration of 50 µM, 90 min before the end of the treatment period indicated in the figure legends. Then, absorbances at 570 nm and 620 nm (reference wavelength) were read in a Biotek Synergy HT plate reader (Biotek, Winooski, VT, USA).

IL-1β = experiment: LPS-induced IL-1β mRNA, pro-IL-1β protein and secreted IL-1β in Raw 264.7; type: cell-based, mouse; settings: for LPS-induced IL-1β mRNA levels: LPS 1 µg/mL 6 h, 1 h pre-treatment with 666 µM; for mature IL-1β secreted into the cell culture medium / pro-IL-1β protein levels: LPS 1 µg/mL 18 h, relative to LPS alone; for mature IL-1β secreted into the cell culture medium: 666 µM, ELISA
Method: Upon transcription, this mRNA is translated into a precursor protein (pro-IL-1β) that undergoes partial hydrolysis by a proteolytic complex, the inflammasome, being converted into the mature IL-1β protein which is then secreted.
Figure 3 (S)-(+)-carvone (4) and (R)-(−)-carvone (5) decrease LPS-induced IL-1β mRNA (a) and protein (b,c) levels in the Raw 264.7 cell line. Macrophage cultures were treated with 1 µg/mL LPS, for 6 h (a) or 18 h (b,c), following pre-treatment for 1 h with 666 µM of each test compound (a and c) or with the concentrations indicated in (b). Control cells (Ctrl) were treated with vehicle (0.1% DMSO) in the absence of LPS. Each column represents the mean ± SEM of, at least, three independent experiments. The blots shown are representative of, at least, three independent experiments and are cropped for clarity and conciseness. The corresponding full-length blots are presented in Fig. S3. *p < 0.05, **p < 0.01 and ****p < 0.0001 relative to LPS-treated cells. ^##p < 0.01, ^###p < 0.001 and ^####p < 0.0001 relative to the Ctrl. ^§p < 0.05 between the conditions indicated. MW: molecular weight marker.
as §5
Total RNA extraction and qRT-PCR were performed as described before. Briefly, total RNA was extracted using the NZYol (NZYTECH, Lisbon, Portugal) and quantified in a NanoDrop ND-1000 spectrophotometer at 260 nm. RNA purity was assessed by analysis of 260/230 and 260/280 absorption ratios. The cDNA was reverse-transcribed using NZY First Strand cDNA Synthesis Kit (NZYTECH), beginning with 2 µg of total RNA. qRT-PCR was performed, in duplicate for each sample, using NZYSpeedy qPCR Green Master Mix (2×) (NZYTECH) on CFX96 Real-Time PCR Detection System (Bio-Rad, Hercules, CA, USA).
Gene expression changes were analysed using the built-in CFX Manager software which enables the analysis of the results by the Pfaffl method, a variation of the ΔΔCT method corrected for gene-specific efficiencies. The results were normalized using Hprt1 as housekeeping gene.
as §3
The concentration of IL-1β in the culture supernatants was measured using the Mouse IL-1β ELISA kit (ThermoScientific, Rockford, USA), following the manufacturer’s instructions.

human chondrocytes [4] = experiment: Cell viability of IL-1β-treated primary human chondrocytes (resazurin); type: cell-based; settings: 666 or 1331 µM; IL-1β 10 ng/mL 24 h
Method: as §1, §5, §6

human chondrocytes [5] = experiment: IL-1β-induced NOS2 protein, NO production and pro-IL-1β protein in primary human chondrocytes; type: cell-based; settings: IL-1β 10 ng/mL 24 h
Method: The cells were treated with 10 ng/mL IL-1β for 24 h (a, b, c and d), following pre-treatment for 1 h with 666 or 1331 µM of (S)-(+)-carvone (4). As a positive control, the cells were similarly treated with 5 μM Bay 11-7082 (b and c). Control cells (Ctrl) were treated with the vehicle (0.1% DMSO) in the absence of IL-1β. Each column represents the mean ± SEM of, at least, three independent experiments. The blots shown are representative of, at least, three independent experiments and are cropped for clarity and conciseness.
Briefly, cartilage shavings underwent sequential digestion with Pronase (Roche, Indianapolis, IN, USA) and collagenase A (Roche, Indianapolis, IN, USA). To avoid chondrocyte dedifferentiation, non-proliferating monolayer cultures were setup by plating 1× 10^6 chondrocytes/mL in HAM: F12 medium containing 3% antibiotics and 5% FBS and allowed to recover for 24 h at 37 °C in a humidified atmosphere with 5% CO2. Prior to any treatments, chondrocytes were serum-starved overnight and thereafter maintained in culture medium without FBS.
This vehicle was used as control. […] Recombinant human interleukin-1β (IL-1β; Peprotech, Rocky Hill, NJ, USA) was dissolved in PBS containing 0.1% Bovine Serum Albumin.
Total cell extracts were prepared and western blot was performed as described before[54]. […] Immune complexes were detected with Enhanced ChemiFluorescence reagent (GE Healthcare) in the imaging system Thyphoon FLA 9000 (GE Healthcare). The membranes were reprobed with a mouse monoclonal anti-β-Tubulin I antibody (Sigma-Aldrich Co.), diluted at 1:20000, as a loading control, for 1 h at room temperature. Image analysis was performed with TotalLab TL120 software (Nonlinear Dynamics Ltd).

Raw 264.7 cell line = system: Raw 264.7 cell line; parameters: method as in PMID 20625233, PMID 23541436; settings: concentrations much higher than in the current study; cited from earlier work
human chondrocytes [6] = system: human chondrocytes; parameters: method as in PMID 25622554; settings: limonene up to 200 μg/mL, β-myrcene up to 50 μg/mL; cited from earlier work
[7] = carvone 666 or 1331 µM, Bay 11-7082 5 µM

Q: For `C=C(C)[C@@H]1CC=C(C)C(=O)C1` [(R)-(−)-carvone (5), (R)-(−)-carvone], which “LPS-induced NOS2 mRNA levels” value (NOS2 [1]) is on record?
A: Its value is “significantly reduced”.

Q: And the “LPS-induced NOS2 protein levels” value (NOS2 [1])?
A: The value was “significantly reduced”.

Q: And the “Decrease of NO production” value (NOS2 [2])?
A: Its value is “approximately 30%”.

Q: And the “Reduction of NOS2 protein levels” value (NOS2 [2])?
A: Its value is “approximately 60%”.

Q: And the IC50 [3]?
A: The IC50 was 123 µM and 18.5 µg/mL.

Q: What about the “Decrease (inhibition) of LPS-induced NO production” value [3] of the same compound?
A: Its value is “greater than 30%”.

Q: And the “% inhibition of LPS-induced NO production” value [3]?
A: Its value is 71.50 ± 1.74 % ± SEM.

Q: And the “Highest non-cytotoxic concentration tested” value (Raw 264.7 cells)?
A: The value was 666 µM and 100 µg/mL.

Q: What about the “LPS-induced IL-1β mRNA levels” value (IL-1β) of the same compound?
A: The value was “significantly reduced”.

Q: And the “mature IL-1β secreted into the cell culture medium” value (IL-1β)?
A: Its value is “significantly decreased”.

Q: What about the pro-IL-1β protein levels (IL-1β) of the same compound?
A: Its pro-IL-1β protein levels is “significantly decreased”.

Q: Which results are given for `C=C(C)[C@H]1CC=C(C)C(=O)C1` [(S)-(+)-carvone (4), (S)-(+)-carvone]?
A: Cell viability relative to cells treated with IL-1β alone (human chondrocytes [4]): not to affect cell viability; LPS-induced NOS2 mRNA levels (NOS2 [1]): significantly reduced; LPS-induced NOS2 protein levels (NOS2 [1]): significantly reduced; Decrease of NO production (NOS2 [2]): approximately 30%; Reduction of NOS2 protein levels (NOS2 [2]): approximately 60%; IC50 [3]: 110 µM and 16.5 µg/mL; Decrease (inhibition) of LPS-induced NO production [3]: greater than 30%; % inhibition of LPS-induced NO production [3]: 68.73 ± 1.55 % ± SEM; pro-IL-1β protein levels (human chondrocytes [5]; 666 or 1331 µM): significantly decreased pro-IL-1β protein levels in a concentration-dependent manner; IL-1β-induced NO production (human chondrocytes [5]; [7]): significantly decreased; IL-1β-induced NOS2 protein levels (human chondrocytes [5]; [7]): significantly decreased; Highest non-cytotoxic concentration tested (Raw 264.7 cells): 666 µM and 100 µg/mL; LPS-induced IL-1β mRNA levels (IL-1β): significantly reduced; mature IL-1β secreted into the cell culture medium (IL-1β): significantly decreased; pro-IL-1β protein levels (IL-1β): significantly decreased

Q: With `C=C(C)[C@H]1CC=C(C)CC1` [limonene] as the compound, how does the Anti-inflammatory effects (Raw 264.7 cell line) read?
A: The Anti-inflammatory effects was “Significant anti-inflammatory effects”.

Q: And the Anti-inflammatory effects (human chondrocytes [6])?
A: The Anti-inflammatory effects was “Significant anti-inflammatory effects”.

Q: Which “% inhibition of LPS-induced NO production” value [3] does the source give for `C=CC(=C)CCC=C(C)C` [β-myrcene (16), β-myrcene] here?
A: The value was 16.48 ± 17.00 % ± SEM.

Q: And the “Effect on LPS-induced NO production / anti-inflammatory activity (in words)” value [3]?
A: The value was “showed no activity”.

Q: What about the “Effect on LPS-induced NO production / anti-inflammatory activity (in words)” value ([3]; listed as 16) of the same compound?
A: The value was “no effect; also recorded: Neither the more rigid (17–19), nor the more flexible (16) of these four compounds showed any activity”.

Q: And the “Highest non-cytotoxic concentration tested” value (Raw 264.7 cells)?
A: The value was 183 µM and 25 µg/mL.

Q: And the Anti-inflammatory effects (Raw 264.7 cell line)?
A: Its Anti-inflammatory effects is “Significant anti-inflammatory effects”.

Q: What about the Anti-inflammatory effects (human chondrocytes [6]) of the same compound?
A: Its Anti-inflammatory effects is “Significant anti-inflammatory effects”.
